For the test, the target named is T1, Monoglyceride lipase (Rattus norvegicus, UniProt Q8R431).
T1 sequence (Q8R431 whole entry): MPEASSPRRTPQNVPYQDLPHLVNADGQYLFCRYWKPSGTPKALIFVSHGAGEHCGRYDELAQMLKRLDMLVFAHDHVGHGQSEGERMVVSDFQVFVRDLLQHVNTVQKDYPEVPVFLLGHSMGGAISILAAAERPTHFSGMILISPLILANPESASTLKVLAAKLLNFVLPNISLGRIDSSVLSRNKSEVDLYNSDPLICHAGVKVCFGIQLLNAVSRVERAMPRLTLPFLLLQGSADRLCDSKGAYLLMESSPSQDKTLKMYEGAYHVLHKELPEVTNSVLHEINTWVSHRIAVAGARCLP
Nature of the test: Enzyme Assay. Particulars: 37 °C. The procedure: Purified recombinant rat MGL was prepared and enzyme activity was assayed.

The IC50 is the concentration that inhibits the measured activity by half. A higher IC50 goes with lower potency. For `C=c1c(O)c(O)cc2c1=CC=C1[C@@]2(C)CC[C@@]2(C)C3C[C@](C)(C(=O)OC)CC[C@]3(C)CC[C@]12C` (stereo not given in full) [Pristimerin], the midpoint of inhibition, the IC50, lay at 0.093 µM. Under `COC(=O)[C@]1(C)CC[C@]2(C)CC[C@]3(C)C4=CCc5c(cc(O)c(O)c5C)[C@]4(C)CC[C@@]3(C)C2C1` (stereo not given in full) [Pristimerol] stands 4 µM; under `CC(=O)Oc1cc2c(c(C)c1OC(C)=O)CC=C1[C@@]2(C)CC[C@@]2(C)[C@@H]3C[C@](C)(C(=O)O)CC[C@]3(C)CC[C@]12C` [Dihydrocelastryl diacetate], 15 µM; under `Cc1c(O)c(O)cc2c1CC=C1[C@@]2(C)CC[C@@]2(C)C3C[C@](C)(C(=O)O)CC[C@]3(C)CC[C@]12C` (stereo not given in full) [Dihydrocelastrol], 15 µM. Under `C=c1c(O)c(O)cc2c1=CC=C1[C@@]2(C)CC[C@@]2(C)[C@@H]3C[C@](C)(C(=O)O)CC[C@]3(C)CC[C@]12C` stands 1.6 µM.
